In ChEMBL document CHEMBL1121420, “Preparation and antitumor activity of olivomycin A analogues” (1980) one finds Activity and T/C data, which are given here for 4 molecules.

The test system of assay [1] is Mus musculus. Put plainly: Average change in weight is tested in mice at a dose of 0.25 mg/kg. The format is functional.
Assay [2] deals with Mus musculus. Put plainly: Average change in weight is tested in mice at a dose of 0.5 mg/kg. Type of assay: functional.
Assay [3] deals with Mus musculus. The assay is described as follows: Average change in weight is tested in mice at a dose of 1 mg/kg. The format is functional. On the set-up: unit not given here.
Assay [4] relates to Mus musculus. The assay is described as follows: Average change in weight is tested in mice at a dose of 2 mg/kg. Type of assay: functional. Further details: unit not given here.
Assay [5] relates to Mus musculus. The assay is described as follows: Average change in weight is tested in mice at a dose of 8 mg/kg. The format is functional. On the set-up: unit not given here.
For assay [6], the system named is P388. Put plainly: Tested on P-388 Leukemia for median survival time treated to median survival time control when administered intraperitoneally at a dose of 0.25 mg/kg. The format is functional, Mus musculus. To be noted: route intraperitoneal.
The test system of assay [7] is P388. The assay is described as follows: Tested on P-388 Leukemia for median survival time treated to median survival time control when administered intraperitoneally at a dose of 0.5 mg/kg. Type of assay: functional, Mus musculus. As to conditions: route intraperitoneal.
Assay [8] deals with P388. Put plainly: Tested on P-388 Leukemia for median survival time treated to median survival time control when administered intraperitoneally at a dose of 1 mg/kg. The format is functional, Mus musculus. As to conditions: route intraperitoneal.
Assay [9] deals with P388. The assay is described as follows: Tested on P-388 Leukemia for median survival time treated to median survival time control when administered intraperitoneally at a dose of 2 mg/kg. Type of assay: functional, Mus musculus. To be noted: route intraperitoneal.
Assay [10] deals with P388. Put plainly: Tested on P-388 Leukemia for median survival time treated to median survival time control when administered intraperitoneally at a dose of 4 mg/kg. Type of assay: functional, Mus musculus. As to conditions: route intraperitoneal.
Assay [11] concerns P388. The assay is described as follows: Tested on P-388 Leukemia for median survival time treated to median survival time control when administered intraperitoneally at a dose of 8 mg/kg. The format is functional, Mus musculus. As to conditions: route intraperitoneal.
The test system of assay [12] is Mus musculus. Put plainly: Average change in weight is tested in mice at a dose of 4 mg/kg. Further details: unit not given here. Type of assay: functional.
Assay [13] deals with Mus musculus. The assay is described as follows: Average change in weight is tested in mice at a dose of 8 mg/kg; Toxic. Type of assay: functional, organism-based. Further details: dose 8 mg/kg.
In assay [14] the test system is P388. Put plainly: Tested on P-388 Leukemia for median survival time treated to median survival time control when administered intraperitoneally at a dose of 8 mg/kg; Toxic. Type of assay: functional, organism-based. Further details: dose 8 mg/kg. To be noted: Mus musculus.
Assay [15] relates to Mus musculus. Put plainly: Average change in weight is tested in mice at a dose of 4 mg/kg; Toxic. The format is functional, organism-based. Further details: dose 4 mg/kg.
Assay [16] deals with P388. The assay is described as follows: Tested on P-388 Leukemia for median survival time treated to median survival time control when administered intraperitoneally at a dose of 4 mg/kg; Toxic. Type of assay: functional, organism-based. On the set-up: dose 4 mg/kg. To be noted: Mus musculus.

A word on the T/C: it is the ratio of treated to control. As for `CO/N=C(\C(O)C(C)O)C(OC)C1Cc2cc3cc(OC4CC(OC(C)=O)C(OC5CC(O)C(OC)C(C)O5)C(C)O4)cc(O)c3c(O)c2C(=O)C1OC1CC(OC2CC(OC3CC(C)(O)C(OC(=O)C(C)C)C(C)O3)C(O)C(C)O2)C(O)C(C)O1` (stereo not drawn), the Activity is 1.3 with Mus musculus [1]; 0.8 in the assay with Mus musculus [2]; 0.9 in the assay with Mus musculus [3]; 0.3 in the assay with Mus musculus [4]; 2.8 in the assay with Mus musculus [5]; 1.3 in the assay with Mus musculus [12]. Moreover, the T/C in the assay on P388 [6] amounted to 128%; with P388 [7], 156%; in the assay on P388 [8], 144%; in the assay with P388 [9], 167%; in the assay with P388 [10], 156%; with P388 [11] it was 144%.
With `C/N=C(\C(O)C(C)O)C(OC)C1Cc2cc3cc(OC4CC(OC(C)=O)C(OC5CC(O)C(OC)C(C)O5)C(C)O4)cc(O)c3c(O)c2C(=O)C1OC1CC(OC2CC(OC3CC(C)(O)C(OC(=O)C(C)C)C(C)O3)C(O)C(C)O2)C(O)C(C)O1` (stereo not drawn), the Activity with Mus musculus [3] was 1.1; in the assay on Mus musculus [4], 0.1; with Mus musculus [13], “Toxic”; in the assay on Mus musculus [12] it was 2.4. Besides, the T/C with P388 [8] was 122%; with P388 [9], 140%; with P388 [10], 155%; with P388 [14], “Toxic”.
With `COc1cc(OC2CC(OC(C)=O)C(OC3CC(O)C(OC)C(C)O3)C(C)O2)cc2cc3c(c(O)c12)C(=O)C(OC1CC(OC2CC(OC4CC(C)(O)C(OC(=O)C(C)C)C(C)O4)C(O)C(C)O2)C(O)C(C)O1)C(C(OC)C(=O)C(O)C(C)O)C3` (stereo not drawn), the Activity turned out to be 1.3 in the assay with Mus musculus [1]; 1.3 in the assay on Mus musculus [2]; 1.3 in the assay with Mus musculus [3]; 0.7 in the assay with Mus musculus [4]; 1.3 in the assay on Mus musculus [12]. In addition, the T/C in the assay on P388 [6] is listed as 106%; with P388 [7] it was 133%; with P388 [8] it was 144%; in the assay on P388 [9], 156%; in the assay with P388 [10], 156%.
For the molecule `COC(/C(=N/O)C(O)C(C)O)C1Cc2cc3cc(OC4CC(OC(C)=O)C(OC5CC(O)C(OC)C(C)O5)C(C)O4)cc(O)c3c(O)c2C(=O)C1OC1CC(OC2CC(OC3CC(C)(O)C(OC(=O)C(C)C)C(C)O3)C(O)C(C)O2)C(O)C(C)O1` (stereo not drawn), the Activity is 1.3 with Mus musculus [4], “Toxic” with Mus musculus [15], 0.8 in the assay on Mus musculus [5] and 0.8 in the assay with Mus musculus [12]. The T/C was 100% in the assay on P388 [7], 100% in the assay on P388 [8], 155% with P388 [9] and “Toxic” with P388 [16].
